Laboratory results: patent publication US20050239358A1, “Antimicrobial melamine resin and products made therefrom” (MICROBAN PRODUCTS COMPANY, priority 2002, published 2005)

Columns and labels:
bacteria and fungi = assay: antimicrobial efficacy of agents in melamine formaldehyde resin; conditions: agent for melamine resin; stated in words, no test described
[1] = at 20° C.; cited from earlier work

## O=c1[nH]sc2ccccc12 [1,2-benzisothiazolin-3-one]
Bacteria and fungi
  efficacy as antimicrobial agent: efficacious

## CCCCCCCCn1sc(Cl)c(Cl)c1=O [4,5-dichloro-2-N-octyl-3(2H)-isothiazolone]
Bacteria and fungi
  efficacy as antimicrobial agent: efficacious

## CCCCn1sc2ccccc2c1=O [N-butyl-1,2-benzisothiazolin-3-one]
Bacteria and fungi
  efficacy as antimicrobial agent: efficacious

## Oc1cc(Cl)ccc1Oc1ccc(Cl)cc1Cl [Triclosan, 2,4,4′-trichloro-2′-hydroxydiphenyl ether]
Bacteria and fungi
  efficacy as antimicrobial agent: particularly efficacious
[1]
  vapor pressure: 4×10^−4 mm

## Cn1sc(Cl)cc1=O [chloro-2-methyl-3(2H)-isothiazolone]
Bacteria and fungi
  efficacy as antimicrobial agent: efficacious

## Cn1sccc1=O [methyl-3(2H)-isothiazolone]
Bacteria and fungi
  efficacy as antimicrobial agent: efficacious
